Data taken from the supplement of paper PMC10307832.

Assays:
Experiment in all cases: relative viability (nuclei count vs DMSO), 5 days (fraction); higher = more cells survive
[1] = compound: Cn1nnc2c(C(N)=O)ncn2c1=O [Temozolomide] + N=C(N)NC(=N)NCCc1ccccc1 [Phenformin] (partner 250 µM)
How it was run: (§1)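 Relative viability equals treated-well nuclei counts divided by vehicle-well nuclei counts. Counts came from 4× images of lung cancer cell lines grown in 1536-well plates for 5 days after pin-tool dosing on the day after seeding. Dosing used one drug alone or a fixed anchor-drug dose plus five library-drug doses (not always all listed) in √10 steps, and values are medians of duplicate plates.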

[2] = compound: C[C@@H](C(=O)N[C@@H](C1CCCCC1)C(=O)N2CCC[C@H]2C(=O)N[C@@H]3[C@@H](CC4=CC=CC=C34)OCC#CC#CCO[C@@H]5CC6=CC=CC=C6[C@@H]5NC(=O)[C@@H]7CCCN7C(=O)[C@H](C8CCCCC8)NC(=O)[C@H](C)NC)NC [AZD5582] + CC1(C)CCC(c2ccc(Cl)cc2)=C(CN2CCN(c3ccc(C(=O)NS(=O)(=O)c4ccc(N[C@H](CCN5CCOCC5)CSc5ccccc5)c(S(=O)(=O)C(F)(F)F)c4)cc3)CC2)C1 [Navitoclax] (partner 0.5 µM)
How it was run: as §1

[3] = compound: C[C@@H](C(=O)N[C@@H](C1CCCCC1)C(=O)N2CCC[C@H]2C(=O)N[C@@H]3[C@@H](CC4=CC=CC=C34)OCC#CC#CCO[C@@H]5CC6=CC=CC=C6[C@@H]5NC(=O)[C@@H]7CCCN7C(=O)[C@H](C8CCCCC8)NC(=O)[C@H](C)NC)NC [AZD5582]
How it was run: (§2)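 Viability here means nuclei in treated wells divided by nuclei in vehicle wells, reported as the median across plates. Only plates with control CV below 25% and at least one doubling passed. Lung cancer cell lines in 1536-well plates were exposed to five √10-spaced library-drug doses for 5 days and counted from 4× Hoechst images in MetaXpress.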

[4] = compound: Cn1nnc2c(C(N)=O)ncn2c1=O [Temozolomide]
How it was run: as §2

| Cell Line | relative viability ([1]; first compound 0.2 µM) | relative viability ([1]; first compound 0.6325 µM) | relative viability ([1]; first compound 2 µM) | relative viability ([1]; first compound 6.325 µM) | relative viability ([1]; first compound 20 µM) | relative viability ([2]; first compound 0.001581 µM) | relative viability ([2]; first compound 0.005 µM) | relative viability ([2]; first compound 0.01581 µM) | relative viability ([2]; first compound 0.05 µM) | relative viability ([3]; 0.001581 µM) | relative viability ([3]; 0.005 µM) | relative viability ([3]; 0.01581 µM) | relative viability ([3]; 0.05 µM) | relative viability ([4]; 0.2 µM) | relative viability ([4]; 0.6325 µM) | relative viability ([4]; 2 µM) | relative viability ([4]; 6.325 µM) | relative viability ([4]; 20 µM) |
| --- | --- | --- | --- | --- | --- | --- | --- | --- | --- | --- | --- | --- | --- | --- | --- | --- | --- | --- |
| NCI-H1734 | 0.474 | 0.454 | 0.437 | 0.383 | 0.342 | 0.791 | 0.866 | 0.886 | 0.954 | 0.968 | 1.11 | 1.03 | 1.23 | 1.12 | 1.05 | 1.06 | 0.932 | 0.976 |
| A-427 | 0.314 | 0.364 | 0.39 | 0.246 | 0.267 | 0.779 | 0.831 | 0.896 | 0.756 | 0.917 | 0.971 | 0.882 | 0.721 | 1.04 | 0.996 | 1.03 | 0.713 | 0.46 |
| NCI-H2023 | 0.431 | 0.442 | 0.467 | 0.401 | 0.449 | 0.962 | 0.844 | 1.01 | 0.956 | 0.842 | 0.962 | 0.84 | 0.934 | 0.979 | 0.943 | 1.01 | 0.984 | 0.941 |
| NCI-H1915 | 0.393 | 0.385 | 0.35 | 0.268 | 0.259 | 0.777 | 0.757 | 0.793 | 0.746 | 0.899 | 1 | 0.805 | 0.947 | 1.09 | 0.987 | 0.946 | 0.602 | 0.386 |
| LK-2 | 0.502 | 0.568 | 0.455 | 0.179 | 0.194 | 0.754 | 0.895 | 0.803 | 1.21 | 0.766 | 1.07 | 0.876 | 1.23 | 0.997 | 1.06 | 0.961 | 0.645 | 0.407 |
| NCI-H1755 | 0.68 | 0.598 | 0.621 | 0.547 | 0.532 | 0.933 | 0.973 | 1.01 | 1 | 0.939 | 0.99 | 0.946 | 1.05 | 1.08 | 0.971 | 1.04 | 0.965 | 0.818 |
| NCI-H441 | 1.07 | 0.892 | 0.93 | 0.738 | 0.944 | 0.639 | 0.543 | 0.453 | 0.518 | 0.77 | 0.954 | 0.869 | 0.982 | 1.25 | 1.06 | 1.29 | 0.997 | 1.15 |
| NCI-H3122 | 0.394 | 0.378 | 0.385 | 0.376 | 0.369 | 1.04 | 1.03 | 1.01 | 0.619 | 0.938 | 1.02 | 1 | 0.265 | 1.02 | 1.03 | 1.06 | 0.945 | 0.97 |
| NCI-H1793 | – | 0.359 | 0.394 | 0.297 | 0.323 | 0.475 | 0.453 | 0.476 | 0.465 | 0.897 | 1.05 | 0.822 | 0.797 | – | 0.919 | 0.918 | 0.87 | 0.636 |
| COR-L 105 | 0.452 | 0.603 | 0.594 | 0.452 | 0.305 | 0.8 | 0.657 | 0.746 | 0.813 | 0.936 | 1.11 | 0.876 | 1.02 | 0.895 | 1.02 | 0.993 | 0.883 | 0.507 |
| NCI-H1993 | 0.563 | 0.493 | 0.469 | 0.464 | 0.613 | 0.917 | 0.936 | 0.876 | 0.922 | 0.758 | 1.1 | 0.957 | 1 | 0.866 | 0.968 | 0.953 | 0.944 | 0.758 |
| BEN | 0.286 | 0.288 | 0.229 | 0.27 | 0.26 | 0.0668 | 0.0512 | 0.0565 | 0.0544 | 0.926 | 1.01 | 1.05 | 0.828 | 0.956 | 0.94 | 1.03 | 0.813 | 0.766 |
| NCI-H2009 | 0.521 | 0.482 | 0.534 | 0.402 | 0.487 | 1.14 | 1.21 | 1.15 | 1.18 | 0.916 | 1.09 | 0.943 | 0.988 | 1.05 | 1.01 | 1.05 | 0.923 | 1.06 |
| NCI-H2228 | 0.411 | 0.508 | 0.307 | 0.3 | 0.351 | 0.904 | 0.851 | 0.837 | 0.555 | 1.01 | 1.05 | 0.942 | 0.538 | 1.19 | 0.928 | 1.15 | 0.881 | 1.05 |
| NCI-H1792 | 0.61 | 0.352 | 0.328 | 0.155 | 0.271 | 0.608 | 0.632 | 0.578 | 0.836 | 0.754 | 0.971 | 0.712 | 1.21 | 1.22 | 1.02 | 1.07 | 0.854 | 1.07 |
| PC-14 | 0.498 | 0.686 | 0.519 | 0.31 | 0.105 | 1.06 | 0.967 | 0.969 | 1.11 | 0.859 | 1.03 | 0.926 | 0.932 | 1.07 | 1.03 | 0.994 | 0.944 | 0.529 |
| EKVX | 0.185 | 0.232 | 0.232 | 0.236 | 0.216 | 0.878 | 1.01 | 0.798 | 0.959 | 0.957 | 1.13 | 0.794 | 1.01 | 0.618 | 0.97 | 0.967 | 0.921 | 0.66 |
